Test results: article PMC6687188, “Novel lactate dehydrogenase inhibitors with in vivo efficacy against Cryptosporidium parvum” (PLoS Pathogens, 2019)

Molecular target: recombinant CpLDH protein (Cryptosporidium parvum, UniProt Q9GT92, F198L/K295E/R251K)

SMILES	MEAN CpLDH INHIBITION (%)
CCC1CN2CCc3cc(OC)c(OC)cc3C2CC1CC1c2cc(OC)c(OC)cc2CCN1C(=O)C1CCCN1C(=O)OCc1ccccc1 (centres unmarked) [NSC103248]	-105.50
C[C@@H]1C[C@H]2OC(=O)[C@@]3(C)CCC[C@@](C)([C@@H]23)[C@@]1(O)CCc1ccoc1 [NSC36693]	-16.69
CC1(C)[C@@H]2CC[C@@]1(CS(=O)(=O)O)C(=O)C2.CN1[C@@H](c2ccccc2)CC(=NO)C[C@H]1c1ccccc1 [NSC363744]	-9.54
Cc1c2ccncc2c(C)c2c1sc1ccccc12 [NSC119686]	-46.09
CC(=O)OC(C)(C)/C=C/C(=O)[C@](C)(O)[C@H]1[C@H](O)C[C@@]2(C)[C@@H]3CC=C4[C@@H](C[C@H](O)C(=O)C4(C)C)[C@]3(C)C(=O)C[C@]12C [NSC49451]	-57.10
Cc1c2ccnc(C(N)=O)c2c(C)c2c1[nH]c1ccccc12.Cl [NSC335142]	-27.72
CN(C)c1cccc(/C=C(\C#N)c2ccccc2)c1 [NSC667251]	-17.96
CC(=O)C(N1CCCCC1)C(O)(C(F)(F)F)C(F)(F)F (centres unmarked) [NSC664327]	-14.71
COc1cc2c(c3oc4cccc(O)c4c(=O)c13)[C@@H]1C=CO[C@@H]1O2 [NSC204985]	-20.51
CCN(CC)CCNc1ccc2nc(C)n3c4ccc(OC)cc4c(=O)c1c23 [NSC637993]	-46.33
COC(=O)C(=O)C(C(=O)C(=O)Nc1cc(C)ccc1C)c1nc2ccc(C(=O)c3ccccc3)cc2[nH]c1=O (centres unmarked) [NSC642040]	-9.38
CS(=O)(=O)c1nc(N)nc2nc[nH]c12 [NSC63446]	-4.16
O=C(c1nc2ccc(Cl)cc2[nH]c1=O)C(O)c1ccc2c(c1)OCO2 (centres unmarked) [NSC642649]	-27.23
COc1ccccc1[S+]([O-])Nc1ccccc1 (centres unmarked) [NSC676561]	-16.89
NC1=NCN([C@@H]2O[C@H](CO)[C@@H](O)[C@H]2O)C(=O)N1 [NSC264880]	-2.01
CCC[CH2][Sn]1([CH2]CCC)[S]CC[N]1S(=O)(=O)c1ccc(C)cc1 [NSC183359]	-29.84
O=C1c2ccccc2C(=O)c2sc(Nc3ccc(Cl)cc3)nc21 [NSC631529]	-18.60
CCOC(=O)c1ccc(-c2cc(C)no2)[nH]1 [NSC693053]	-6.53
CCOC(=O)NC(Nc1ccc(F)cc1)(C(=O)OCC)C(F)(F)F (centres unmarked) [NSC684845]	-7.56

SMILES	MEAN CpLDH INHIBITION (%)
Cl.NCCSSCc1ccccc1CSSCCN [NSC624169]	-25.23
Cc1cc(NC(=O)NC(=O)c2ccccc2NC(=O)CN)ccc1Oc1ncc(Br)cn1.Cl [NSC654259]	-46.44
CN(C)c1ccc(/C=C/C(=O)c2ccccc2)cc1Br [NSC643164]	-21.20
CC(=O)c1sc2c(c1OC(=O)c1ccc(Cl)cc1Cl)c(=O)n(-c1ccccc1)c(=S)n2-c1ccccc1 [NSC671136]	-17.97
CCOC(=O)Nc1nc2ccc(Cn3cccc3)cc2[nH]1 [NSC639754]	-8.79
CCCCS(=N)(=O)CCC(N)C(=O)O (centres unmarked) [NSC326231]	-24.75
O=S1(=O)OCCOS(=O)(=O)C1Cc1ccccc1 [NSC634863]	-18.12
COC(=O)C[S+]([O-])c1ccccc1 (centres unmarked) [NSC620050]	-37.27
CN1C(Cl)=NS(=O)(=O)c2ccccc21 [NSC373853]	-15.72
CC(C)C1(Cl)CCC2C3(C)CCCC(C)(C(=O)O)C3CC(Cl)C2(Cl)C1Cl (centres unmarked) [NSC2979]	-29.91
CC(=O)O[C@H]1C(=O)[C@@]2(C)[C@H]([C@H](OC(=O)c3ccccc3)[C@]3(O)C[C@H](O)C(C)=C1C3(C)C)[C@]1(OC(C)=O)CO[C@@H]1C[C@@H]2O [NSC330753]	-63.01
[O-][Cl+3]([O-])([O-])[O-].c1ccc(-c2csc3c4ccccc4c4ccccc4[n+]23)cc1 [NSC98904]	-42.18
O/N=C(/CC(O)(C(F)(F)F)C(F)(F)F)c1cccc(Cl)c1 [NSC664329]	-28.29
O=C(C[n+]1ccc2ccccc2c1)c1ccc2ccc3ccccc3c2c1 [NSC35489]	-39.94
COc1ccc(/C(=N/O)C(c2ccc(OC)cc2)C2C(=O)Oc3ccccc32)cc1 (centres unmarked) [NSC641607]	-85.63
COc1ccc(N=Cc2ccc(N(CCC#N)S(=O)(=O)c3ccccc3)cc2C)cc1 [NSC643599]	-33.57
Nc1ccccc1C(=O)NC(=O)Nc1ccc(Oc2ncc(Br)cn2)c(Cl)c1 [NSC639828]	-42.32
CN(C)c1ccc(/C=C2\Cc3ccccc3C2=O)cc1Br [NSC643163]	-30.02
O=C(c1ccccc1)C(c1ccccc1)C1(O)C(=O)Nc2c(Cl)cc(Cl)cc21 (centres unmarked) [NSC635312]	-41.63
